Data set [1] deals with PAF-induced eosinophilia. The data set is described as follows: PAF-induced pulmonary eosinophil accumulation after continuous subcutaneous dosing. The data set is classed as in vivo, Sprague-Dawley rats. Particulars: 1 mg/kg/day sc for 6 days, rats; BSA + saline control 100, PAF control 250. How it is done:
Male Sprague-Dawley rats, 400-600 g, were used in these studies.
The study described here used subcutaneous administration of norketotifen and ketotifen by Alzet® osmotic pumps. The rats were administered either RS-norketotifen hydrogen fumarate (1.0 mg/kg/day) or RS-ketotifen hydrogen fumarate (1.0 mg/kg/day) or saline. After five days of sc infusions of test articles and the vehicle, the animals were injected, i.p. with 10 μg PAF (platelet aggregating factor) in 0.25% bovine serum albumin (BSA) in saline. The subcutaneous infusions of test articles or vehicle were continued for another twenty-four hours and the animals were then sacrificed by intraperitoneal injections of a barbiturate. The tracheae of the euthanized animals were exposed and cannulated and aliquots (6×10 ml) of a Tyrode solution were successively introduced into the lungs and aspirated by gentle compression of the thorax. The total recovery of lung fluid was usually above 80%. The cell suspensions were concentrated by low speed centrifugation (200 g for 10 min) and the resulting cell pellet was resuspended in 1 ml of a Tyrode solution. Total cell counts were performed after dilution in Turks fluid, fixation in methanol and Leishman staining.
The study shown here used norketotifen, ketotifen, and saline (control) after continuous dosing with Alzet® Osmotic pumps.

Data set [2] has as its system IL-8. The data set can be described thus: PHA-induced release of IL-8 from human buffy coats. It counts as cell-based. Particulars: 10 uM; PHA 5 μg/ml, 16 hours; inhibition. Here is the method:
(§1) The study was conducted in two phases. The first phase included optimization of the test methodology and included also dose-range finding studies, using buffy coats from 3 human donors, stimulated with phytohemagglutinin (PHA). The concentrations of the test article and the duration of exposure were optimized to obtain acceptable dose-response ratios. Following optimization of the test conditions, a final protocol was issued. In the Main Study, buffy coats from 5 healthy human male donors were stimulated with PHA, 5 μg/ml.
(§2) The inhibitory effects of three concentrations of NK and one concentration of ketotifen were evaluated in the Main Study. The buffy coats were resuspended in assay media and were pre-incubated for 30 min with either vehicle/saline, ketotifen (10 μM) or norketotifen (1.0; 10 or 100 μM). Following these preincubations, the white blood cell suspensions were stimulated for 16 hours with PHA, 5 μg/ml. The cell system supernatants were then harvested and stored frozen.

For data set [3], the system named is IFN-γ. The data set is described as follows: PHA-induced release of IFN-γ from human buffy coats. It counts as cell-based. Particulars: 10 uM; PHA 5 μg/ml, 16 hours; inhibition. How it is done: as §1, §2
In data set [4] the test system is IL-1β. The data set is described as follows: PHA-induced release of IL-1β from human buffy coats. The note with it: 10 uM; PHA 5 μg/ml, 16 hours; inhibition. The data set is classed as cell-based. Here is the method: as §1, §2
The test system of data set [5] is IL-6. The data set can be described thus: PHA-induced release of IL-6 from human buffy coats. It counts as cell-based. The note with it: 10 uM; PHA 5 μg/ml, 16 hours; inhibition. Here is the method: as §1, §2
The test system of data set [6] is IL-10. The data set is described as follows: PHA-induced release of IL-10 from human buffy coats. Particulars: 10 uM; PHA 5 μg/ml, 16 hours; inhibition. It counts as cell-based. Here is the method:
as §1, §2

The test system of data set [7] is IL-2. The data set can be described thus: PHA-induced release of IL-2 from human buffy coats. It counts as cell-based. Particulars: 10 uM; PHA 5 μg/ml, 16 hours; inhibition. Here is the method: as §1, §2
Data set [8] concerns TNF-α. The data set can be described thus: PHA-induced release of TNF-α from human buffy coats. The data set is classed as cell-based. Particulars: 10 uM; PHA 5 μg/ml, 16 hours; inhibition. How it is done:
as §1, §2

Data set [9] has as its system IL-4. The data set can be described thus: PHA-induced release of IL-4 from human buffy coats. The data set is classed as cell-based. The note with it: 10 uM; PHA 5 μg/ml, 16 hours; inhibition. Here is the method: as §1, §2
Data set [10] has as its system IL-13. The data set can be described thus: PHA-induced release of IL-13 from human buffy coats. The data set is classed as cell-based. Particulars: 10 uM; PHA 5 μg/ml, 16 hours; inhibition. How it is done:
as §1, §2

In data set [11] the test system is croton oil-induced ear swelling. The data set is described as follows: Croton oil-induced ear swelling. It counts as in vivo, CD-1 female mice. The note with it: for Average ear thickness: single oral dose 10 mg/kg 60 min before. More on the design: Average ear thickness: unit not given beside the values. Here is the method:
The effects of NK, PRED and the vehicle (5% PEG in water) were tested orally in CD-1 female mice. Under the test protocol, 20 μl of 1.0% croton oil in acetone was applied topically to both ears of three groups of mice, each group consisting of 6 mice. No attempt was made to remove the croton oil solution since the solvent evaporated within 30 seconds. The oral doses of NK and PRED were 10 mg/kg (10 ml/kg) bodyweight for both compounds and were administered 60 min before the croton oil applications. Vehicle-treated mice were dosed 10 ml/kg of water, containing 5% polyethylene glycol (PEG), which was also the solvent for the test articles. Ear thickness was measured with an electronic caliper and mean ear thickness (N=12; right+left ears) were calculated and compared with the thickness of ears from vehicle-treated mice (Student's t-test).

The subject of data set [12] is oxazolone-induced increase in ear thickness. The data set can be described thus: Oxazolone test of immunosuppression (ear thickness). The data set is classed as in vivo, BALB/c mice. The note with it: for Increase in ear thickness (mm): control 0.153; for Increase in ear thickness (%): control 100.0. Here is the method:
Male BALB/c mice, 20-24 grams, 7-12 weeks, were used. The sensitization dosing (Day 1) consisted of painting the ventral portion of the pre-shaved abdominal skin with 0.1 ml of 3.0% oxazolone in 70% ethanol. Test articles were administered orally in 1.0% methyl-cellulose, starting on Day 1 and continuing for 10 consecutive days. The challenge dosing consisted of the application of 0.05 ml of 3.0% oxazolone in 70% ethanol on both sides of the outer pinna of the right ear. The thickness of both ears of all animals was measured with a calliper before the challenge dose and 24 hours after the administration of the challenge dose (Day 10). The ear thickness of untreated mice was 0.19 to 0.20 mm.
Justification of the model: The classic oxazolone test method was used with minor modifications. This method has been used for over 40 years in numerous drug development projects.

Data set [13] has as its system sedation. The note with it: art-accepted mouse model of sedation; U.S. Pat. Nos. 7,226,934 and 7,557,128; cited from earlier work.

The text below walks through data of patent US10959992B2, “Methods of treatment of asthma and COPD” (Bridge Pharma, Inc., priority 2019, dated 2021).

Turning to `CN1CCC(=C2c3ccccc3CC(=O)c3sccc32)CC1.O=C(O)/C=C/C(=O)O` [Ketotifen HF, RS-ketotifen hydrogen fumarate, reference compound], the “PAF-induced esosinophilia (% ± SEM)” value in [1] came to 110 ± 3%.

`CN1CCC(=C2c3ccccc3CC(=O)c3sccc32)CC1` [Ketotifen, ketotifen, reference compound]: the “Effect on PHA-induced release of IL-8 (%)” value in data set [2] came to 30.73%. For the same compound, the “Effect on PHA-induced release of IFN-γ (%)” value in data set [3] came out at 0.00%. The “Effect on PHA-induced release of IL-1β (%)” value in [4] came to 0.00%. The “Effect on PHA-induced release of IL-6 (%)” value in data set [5] was found to be 0.00%. Moreover, the “Effect on PHA-induced release of IL-10 (%)” value in [6] is 0.00%. Further, the “Effect on PHA-induced release of IL-2 (%)” value in [7] is reported as 0.00%. The “Effect on PHA-induced release of TNF-α (%)” value in data set [8] is given as 39.98%. In data set [9], the “Effect on PHA-induced release of IL-4 (%)” value was 0.00%. Also, the “Effect on PHA-induced release of IL-13 (%)” value in data set [10] was 0.00%.

With `O=C(O)C=CC(=O)O.O=C1Cc2ccccc2C(=C2CCNCC2)c2ccsc21` [Norketotifen HF, RS-norketotifen hydrogen fumarate], the “PAF-induced esosinophilia (% ± SEM)” value in [1] stood at 74 ± 4%.

Regarding `C[C@]12C=CC(=O)C=C1CC[C@@H]1[C@@H]2[C@@H](O)C[C@@]2(C)[C@H]1CC[C@]2(O)C(=O)CO` [PRED, prednisolone], the Average ear thickness in data set [11] (0 (predose) min after croton oil, vehicle 0.21 ± 0.02) amounted to 0.22 ± 0.01; in data set [11] (90 min after croton oil, vehicle 0.29 ± 0.04) it was 0.28 ± 0.01; in [11] (120 min after croton oil, vehicle 0.28 ± 0.02) it was 0.27 ± 0.01. Besides, the “Anti-inflammatory effect compared with vehicle control group (conclusion in words)” value in data set [11] (single oral dose 10 mg/kg, croton oil ear swelling in mice) was “did not express statistically significant anti-inflammatory effect”. For the same compound, the “Immunosuppression (%)” value in data set [12] (0.3 mg/kg/day oral for 10 days) was found to be 29.4%; in data set [12] (1.0 mg/kg/day oral for 10 days), 45.0%; in data set [12] (3.0 mg/kg/day oral for 10 days), 50.3%. The results for the “Increase in ear thickness (mm)” value in data set [12] (0.3 mg/kg/day oral for 10 days), in data set [12] (1.0 mg/kg/day oral for 10 days) and in [12] (3.0 mg/kg/day oral for 10 days) were 0.108 mm, 0.084 mm and 0.076 mm, respectively. The “Increase in ear thickness (%)” value is 70.6% in [12] (0.3 mg/kg/day oral for 10 days), 55.0% in data set [12] (1.0 mg/kg/day oral for 10 days) and 49.7% in data set [12] (3.0 mg/kg/day oral for 10 days). In addition, the “Immuno-suppressant activity (conclusion in words)” value in data set [12] (daily oral dosing for 10 days to mice, RS-norketotifen 10 or 30 mg/kg, prednisolone at 10 times lower doses) was “potent and dose-dependent immune suppression”.

`O=C(O)/C=C/C(=O)O.O=C1Cc2ccccc2C(=C2CCNCC2)c2ccsc21` [R-isomer, R-norketotifen]: in data set [13], the Sedative effects result is “sedative effects were attributed to the R-isomer”.
